The results in this text go back to ChEMBL document CHEMBL4507319 (2021).

The structures appear in SMILES notation. Activity calls are given as the source filed them. No cut-off for these calls is given here. Where only a bound is given, the exact number is not on record here.

Assay [1] concerns the target 5'-AMP-activated protein kinase catalytic subunit alpha-1 (Homo sapiens, UniProt Q13131). Put plainly: Biochemical PRKAA1 assay with 10 µM ATP (Bayer in house).
Assay [2] has as its target Cyclin-dependent kinase 4 (Homo sapiens) (UniProt P11802). The following applies: Compound concentration 1000.0 nM.
Assay [3] concerns the target Casein kinase I isoform gamma-3 (Homo sapiens) (UniProt Q9Y6M4). The following applies: Compound concentration 1000.0 nM.
In assay [4] the target is T1, Inhibitor of nuclear factor kappa-B kinase subunit alpha (Homo sapiens) (UniProt O15111).
T1 sequence (whole entry): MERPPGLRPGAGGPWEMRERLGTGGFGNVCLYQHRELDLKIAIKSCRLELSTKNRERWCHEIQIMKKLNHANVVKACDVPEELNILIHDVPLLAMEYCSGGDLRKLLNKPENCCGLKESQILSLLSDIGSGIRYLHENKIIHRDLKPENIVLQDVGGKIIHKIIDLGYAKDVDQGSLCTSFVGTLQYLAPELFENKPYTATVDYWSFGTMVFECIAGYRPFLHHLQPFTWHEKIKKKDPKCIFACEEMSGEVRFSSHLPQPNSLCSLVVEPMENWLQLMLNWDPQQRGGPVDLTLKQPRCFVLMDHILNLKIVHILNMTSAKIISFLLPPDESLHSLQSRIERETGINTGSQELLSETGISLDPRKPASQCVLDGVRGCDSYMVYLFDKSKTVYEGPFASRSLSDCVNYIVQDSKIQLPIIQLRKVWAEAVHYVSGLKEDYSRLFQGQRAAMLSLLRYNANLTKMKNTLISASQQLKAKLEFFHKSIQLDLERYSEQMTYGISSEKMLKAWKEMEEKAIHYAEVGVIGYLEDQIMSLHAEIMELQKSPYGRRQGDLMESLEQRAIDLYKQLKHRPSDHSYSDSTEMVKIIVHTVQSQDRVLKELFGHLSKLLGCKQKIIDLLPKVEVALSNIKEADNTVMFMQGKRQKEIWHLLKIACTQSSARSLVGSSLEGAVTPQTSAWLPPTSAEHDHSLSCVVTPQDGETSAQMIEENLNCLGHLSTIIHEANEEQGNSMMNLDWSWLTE
To be noted: Compound concentration 1000.0 nM.

Assay [5] addresses Interleukin-1 receptor-associated kinase 1 (Homo sapiens) (UniProt P51617). To be noted: Compound concentration 1000.0 nM.
In assay [6] the target is Tyrosine-protein kinase JAK1 (Homo sapiens) (UniProt P23458). The following applies: Compound concentration 1000.0 nM.
The target in assay [7] is Myosin light chain kinase 2, skeletal/cardiac muscle (Homo sapiens) (UniProt Q9H1R3). To be noted: Compound concentration 1000.0 nM.
The target of assay [8] is Myosin-IIIa (Homo sapiens) (UniProt Q8NEV4). To be noted: Compound concentration 1000.0 nM.
The target of assay [9] is T2, Serine/threonine-protein kinase Nek1 (Homo sapiens) (UniProt Q96PY6).
T2 sequence (whole entry): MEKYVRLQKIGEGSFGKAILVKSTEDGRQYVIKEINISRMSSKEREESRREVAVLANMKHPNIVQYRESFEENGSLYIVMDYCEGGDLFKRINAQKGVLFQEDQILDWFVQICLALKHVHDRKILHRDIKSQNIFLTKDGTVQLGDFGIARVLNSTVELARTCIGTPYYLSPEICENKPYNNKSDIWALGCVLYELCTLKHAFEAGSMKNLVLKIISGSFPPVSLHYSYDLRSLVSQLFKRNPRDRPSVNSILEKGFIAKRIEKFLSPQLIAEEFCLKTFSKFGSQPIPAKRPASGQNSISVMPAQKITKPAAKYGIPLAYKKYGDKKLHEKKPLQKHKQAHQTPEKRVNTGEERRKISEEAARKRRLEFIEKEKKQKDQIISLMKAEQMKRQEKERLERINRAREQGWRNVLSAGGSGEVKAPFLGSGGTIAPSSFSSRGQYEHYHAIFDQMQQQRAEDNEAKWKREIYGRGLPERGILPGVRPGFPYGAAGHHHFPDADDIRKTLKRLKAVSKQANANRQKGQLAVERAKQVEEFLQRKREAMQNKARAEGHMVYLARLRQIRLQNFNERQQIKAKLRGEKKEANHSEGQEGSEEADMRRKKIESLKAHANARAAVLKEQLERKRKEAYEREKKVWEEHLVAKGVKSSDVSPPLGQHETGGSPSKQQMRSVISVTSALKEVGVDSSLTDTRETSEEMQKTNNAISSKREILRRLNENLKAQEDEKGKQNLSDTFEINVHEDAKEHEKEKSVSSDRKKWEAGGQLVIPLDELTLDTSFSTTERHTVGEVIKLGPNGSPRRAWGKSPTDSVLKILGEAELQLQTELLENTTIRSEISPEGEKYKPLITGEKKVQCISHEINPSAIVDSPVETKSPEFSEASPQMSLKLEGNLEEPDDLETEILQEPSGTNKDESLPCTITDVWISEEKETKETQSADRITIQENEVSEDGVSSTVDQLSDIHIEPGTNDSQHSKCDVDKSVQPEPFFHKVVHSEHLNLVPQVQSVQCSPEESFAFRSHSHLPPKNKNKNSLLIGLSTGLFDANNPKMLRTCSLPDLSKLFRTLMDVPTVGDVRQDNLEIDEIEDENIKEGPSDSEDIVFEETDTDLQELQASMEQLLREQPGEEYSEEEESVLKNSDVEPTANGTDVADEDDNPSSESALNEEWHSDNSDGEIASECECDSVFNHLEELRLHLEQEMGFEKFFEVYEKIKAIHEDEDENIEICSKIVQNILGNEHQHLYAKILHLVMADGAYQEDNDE
The following applies: Compound concentration 1000.0 nM.

Assay [10] concerns the target Serine/threonine-protein kinase PAK 4 (Homo sapiens) (UniProt O96013). The following applies: Compound concentration 1000.0 nM.
For assay [11], the system named is Phosphatidylinositol 4,5-bisphosphate 3-kinase catalytic subunit alpha isoform (Homo sapiens), P42336 [C420R]. The following applies: Compound concentration 1000.0 nM.
Assay [12] deals with Serine/threonine-protein kinase PLK3 (Homo sapiens) (UniProt Q9H4B4). To be noted: Compound concentration 1000.0 nM.
Assay [13] has as its target 5-hydroxytryptamine receptor 3A (Homo sapiens) (UniProt P46098). The following applies: Compound concentration 10.0 uM.
Assay [14] concerns the target 5-hydroxytryptamine receptor 5A (Homo sapiens) (UniProt P47898). The following applies: Compound concentration 10.0 uM.

Sequence of 5-hydroxytryptamine receptor 5A (Homo sapiens) (P47898 whole entry): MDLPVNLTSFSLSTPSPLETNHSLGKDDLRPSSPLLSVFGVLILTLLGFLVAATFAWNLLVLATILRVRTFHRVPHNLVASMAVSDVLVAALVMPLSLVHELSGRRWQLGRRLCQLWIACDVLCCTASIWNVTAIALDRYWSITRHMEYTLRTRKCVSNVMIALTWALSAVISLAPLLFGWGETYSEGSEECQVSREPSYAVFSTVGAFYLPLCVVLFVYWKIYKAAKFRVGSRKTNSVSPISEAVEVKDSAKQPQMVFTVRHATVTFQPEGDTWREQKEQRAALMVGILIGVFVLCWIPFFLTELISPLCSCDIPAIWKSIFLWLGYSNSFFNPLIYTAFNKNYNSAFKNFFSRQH
Sequence of Myosin light chain kinase 2, skeletal/cardiac muscle (Homo sapiens) (Q9H1R3 whole entry): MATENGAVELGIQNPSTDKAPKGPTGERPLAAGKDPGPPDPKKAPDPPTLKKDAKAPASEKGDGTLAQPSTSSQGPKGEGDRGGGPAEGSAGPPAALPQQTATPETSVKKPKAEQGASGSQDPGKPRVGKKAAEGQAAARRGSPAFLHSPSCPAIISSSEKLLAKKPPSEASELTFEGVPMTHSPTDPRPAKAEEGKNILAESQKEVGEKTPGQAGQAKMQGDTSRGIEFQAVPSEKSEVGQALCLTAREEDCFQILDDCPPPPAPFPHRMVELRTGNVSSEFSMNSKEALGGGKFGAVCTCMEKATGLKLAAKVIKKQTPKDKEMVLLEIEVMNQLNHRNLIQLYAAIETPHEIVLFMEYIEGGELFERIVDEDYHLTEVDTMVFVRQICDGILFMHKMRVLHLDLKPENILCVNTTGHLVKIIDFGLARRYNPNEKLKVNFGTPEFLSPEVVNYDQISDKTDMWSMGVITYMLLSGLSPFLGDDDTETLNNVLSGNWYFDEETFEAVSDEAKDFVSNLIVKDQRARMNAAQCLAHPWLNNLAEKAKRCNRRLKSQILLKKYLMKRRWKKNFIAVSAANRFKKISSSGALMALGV
Sequence of Serine/threonine-protein kinase PAK 4 (Homo sapiens) (O96013 whole entry, looked up, canonical isoform): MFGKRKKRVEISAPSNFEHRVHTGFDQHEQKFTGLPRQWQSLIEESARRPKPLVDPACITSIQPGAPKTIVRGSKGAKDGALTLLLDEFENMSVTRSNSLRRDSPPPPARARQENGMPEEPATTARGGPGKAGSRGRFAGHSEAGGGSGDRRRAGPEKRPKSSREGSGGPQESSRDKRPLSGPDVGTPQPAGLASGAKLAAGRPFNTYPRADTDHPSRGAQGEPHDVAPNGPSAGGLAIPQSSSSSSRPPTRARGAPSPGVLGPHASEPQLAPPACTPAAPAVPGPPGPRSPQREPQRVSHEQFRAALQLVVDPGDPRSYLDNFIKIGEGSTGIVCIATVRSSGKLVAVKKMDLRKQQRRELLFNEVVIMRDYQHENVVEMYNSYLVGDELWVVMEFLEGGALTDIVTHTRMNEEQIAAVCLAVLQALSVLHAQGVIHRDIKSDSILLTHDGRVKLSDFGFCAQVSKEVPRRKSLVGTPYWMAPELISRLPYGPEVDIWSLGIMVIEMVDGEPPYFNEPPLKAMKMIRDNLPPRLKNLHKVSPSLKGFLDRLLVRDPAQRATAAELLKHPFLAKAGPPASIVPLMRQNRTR
Sequence of Casein kinase I isoform gamma-3 (Homo sapiens) (Q9Y6M4 whole entry, looked up, canonical isoform): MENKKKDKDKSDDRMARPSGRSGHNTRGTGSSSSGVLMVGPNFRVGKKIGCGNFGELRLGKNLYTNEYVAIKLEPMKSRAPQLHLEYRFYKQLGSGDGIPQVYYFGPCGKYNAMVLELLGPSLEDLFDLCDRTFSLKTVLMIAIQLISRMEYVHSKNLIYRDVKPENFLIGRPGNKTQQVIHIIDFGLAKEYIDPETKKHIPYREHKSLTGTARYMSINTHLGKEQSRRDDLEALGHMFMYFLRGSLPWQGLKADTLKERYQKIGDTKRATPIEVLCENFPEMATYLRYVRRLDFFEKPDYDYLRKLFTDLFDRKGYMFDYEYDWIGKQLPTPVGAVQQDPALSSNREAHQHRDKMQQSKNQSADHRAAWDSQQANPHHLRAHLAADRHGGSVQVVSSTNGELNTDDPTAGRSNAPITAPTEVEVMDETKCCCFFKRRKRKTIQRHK
Sequence of Interleukin-1 receptor-associated kinase 1 (Homo sapiens) (P51617 whole entry, looked up): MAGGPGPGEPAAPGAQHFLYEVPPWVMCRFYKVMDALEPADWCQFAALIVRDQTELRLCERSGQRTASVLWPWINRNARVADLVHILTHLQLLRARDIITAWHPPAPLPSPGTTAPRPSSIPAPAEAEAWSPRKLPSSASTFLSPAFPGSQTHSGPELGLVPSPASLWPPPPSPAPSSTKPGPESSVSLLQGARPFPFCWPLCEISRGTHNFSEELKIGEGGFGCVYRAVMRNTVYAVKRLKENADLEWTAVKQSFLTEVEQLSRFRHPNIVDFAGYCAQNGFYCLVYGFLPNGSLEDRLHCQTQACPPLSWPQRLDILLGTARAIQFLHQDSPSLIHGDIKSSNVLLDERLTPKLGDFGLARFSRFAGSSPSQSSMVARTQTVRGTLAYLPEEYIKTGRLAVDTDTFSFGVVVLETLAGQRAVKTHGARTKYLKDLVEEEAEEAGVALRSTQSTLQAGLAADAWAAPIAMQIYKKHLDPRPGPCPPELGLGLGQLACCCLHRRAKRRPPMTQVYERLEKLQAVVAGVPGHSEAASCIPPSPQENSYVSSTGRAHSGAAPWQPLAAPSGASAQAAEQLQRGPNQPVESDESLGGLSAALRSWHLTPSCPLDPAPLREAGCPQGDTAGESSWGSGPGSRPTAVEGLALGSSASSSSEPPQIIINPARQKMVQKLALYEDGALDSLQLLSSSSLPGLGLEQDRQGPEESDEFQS
Sequence of 5'-AMP-activated protein kinase catalytic subunit alpha-1 (Q13131 whole entry): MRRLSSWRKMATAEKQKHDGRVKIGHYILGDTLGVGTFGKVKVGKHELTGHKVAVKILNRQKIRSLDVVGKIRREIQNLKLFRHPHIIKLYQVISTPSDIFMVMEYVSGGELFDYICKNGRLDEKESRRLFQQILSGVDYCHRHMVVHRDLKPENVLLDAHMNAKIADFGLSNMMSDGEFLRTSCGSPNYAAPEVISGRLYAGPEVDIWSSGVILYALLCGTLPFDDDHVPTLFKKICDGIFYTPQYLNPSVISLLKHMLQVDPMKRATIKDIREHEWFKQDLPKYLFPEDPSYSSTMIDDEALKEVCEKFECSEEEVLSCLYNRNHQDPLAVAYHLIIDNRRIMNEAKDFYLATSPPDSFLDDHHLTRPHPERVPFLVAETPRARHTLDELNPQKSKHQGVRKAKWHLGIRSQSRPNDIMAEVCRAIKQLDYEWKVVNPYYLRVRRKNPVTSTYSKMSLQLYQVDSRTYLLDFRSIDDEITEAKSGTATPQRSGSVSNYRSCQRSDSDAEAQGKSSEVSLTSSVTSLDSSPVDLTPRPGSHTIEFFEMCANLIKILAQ
Sequence of Serine/threonine-protein kinase PLK3 (Homo sapiens) (Q9H4B4 whole entry, looked up): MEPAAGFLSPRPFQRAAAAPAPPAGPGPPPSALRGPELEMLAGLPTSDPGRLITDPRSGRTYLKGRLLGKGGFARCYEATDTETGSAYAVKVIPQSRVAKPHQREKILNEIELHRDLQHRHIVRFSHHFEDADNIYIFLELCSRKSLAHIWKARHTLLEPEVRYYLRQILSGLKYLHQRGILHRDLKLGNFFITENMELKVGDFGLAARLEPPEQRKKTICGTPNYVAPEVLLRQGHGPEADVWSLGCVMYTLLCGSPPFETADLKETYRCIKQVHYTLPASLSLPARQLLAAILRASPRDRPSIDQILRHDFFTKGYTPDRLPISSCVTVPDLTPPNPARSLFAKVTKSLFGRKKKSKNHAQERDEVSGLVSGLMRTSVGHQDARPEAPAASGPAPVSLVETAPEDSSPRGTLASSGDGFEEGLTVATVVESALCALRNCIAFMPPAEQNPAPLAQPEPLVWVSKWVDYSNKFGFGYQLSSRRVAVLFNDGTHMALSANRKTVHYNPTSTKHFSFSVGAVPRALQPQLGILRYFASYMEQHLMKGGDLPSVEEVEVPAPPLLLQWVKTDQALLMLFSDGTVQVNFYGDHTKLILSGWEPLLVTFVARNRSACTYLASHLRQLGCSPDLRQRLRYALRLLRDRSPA
Sequence of Phosphatidylinositol 4,5-bisphosphate 3-kinase catalytic subunit alpha isoform (Homo sapiens), P42336 [C420R] (P42336 whole entry C420R, canonical isoform): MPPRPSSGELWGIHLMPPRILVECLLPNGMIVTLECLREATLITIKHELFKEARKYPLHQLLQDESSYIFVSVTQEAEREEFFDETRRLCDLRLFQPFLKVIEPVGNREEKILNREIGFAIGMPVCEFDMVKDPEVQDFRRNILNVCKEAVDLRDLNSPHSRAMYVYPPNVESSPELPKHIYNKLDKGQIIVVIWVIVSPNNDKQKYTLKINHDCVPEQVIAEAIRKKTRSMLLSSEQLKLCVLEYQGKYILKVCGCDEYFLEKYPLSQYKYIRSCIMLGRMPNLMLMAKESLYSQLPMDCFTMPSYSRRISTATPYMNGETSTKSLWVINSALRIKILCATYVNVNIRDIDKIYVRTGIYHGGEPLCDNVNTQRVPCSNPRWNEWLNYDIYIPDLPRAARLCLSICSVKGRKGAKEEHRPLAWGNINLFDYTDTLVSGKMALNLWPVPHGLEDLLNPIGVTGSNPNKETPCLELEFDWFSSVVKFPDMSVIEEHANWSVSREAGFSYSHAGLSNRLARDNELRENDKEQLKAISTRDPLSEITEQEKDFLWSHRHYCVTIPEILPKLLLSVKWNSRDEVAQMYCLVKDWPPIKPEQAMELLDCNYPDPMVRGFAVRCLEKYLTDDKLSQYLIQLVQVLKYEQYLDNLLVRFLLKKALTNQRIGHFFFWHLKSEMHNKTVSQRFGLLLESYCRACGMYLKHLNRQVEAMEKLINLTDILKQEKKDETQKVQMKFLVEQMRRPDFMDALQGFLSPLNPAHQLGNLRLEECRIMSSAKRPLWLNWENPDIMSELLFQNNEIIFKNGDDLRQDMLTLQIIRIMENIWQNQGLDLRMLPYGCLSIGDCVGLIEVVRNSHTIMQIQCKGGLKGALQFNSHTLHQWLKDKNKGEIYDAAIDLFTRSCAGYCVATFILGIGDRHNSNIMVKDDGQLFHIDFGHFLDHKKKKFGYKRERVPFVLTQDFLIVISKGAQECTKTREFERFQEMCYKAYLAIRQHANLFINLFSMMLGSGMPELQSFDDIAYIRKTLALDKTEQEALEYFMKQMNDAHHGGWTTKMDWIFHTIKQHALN

With `CC1=C(C#N)C(c2ccc3c(c2)c(NC(=O)c2ccccc2C)nn3C)C(C#N)=C(C)N1` [BAY-974], the IC50 (usually the concentration needed to halve the response being measured) in assay [1] is > 20 µM (not active). Also, the residual activity (commonly the activity still measured, relative to the control) was 100% in assay [2]; 100% in assay [3]; 77% in assay [4]; 75% in [5]; 90% in [6]; 89% in assay [7]. Also, the residual activity in assay [8] is 86%; in [9], 100%; in assay [10], 100%; in [11] it was 74%; in assay [12] it was 80%. Besides, the inhibition (in general, the percentage by which the read-out fell short of the control) was 9.93% in assay [13] and 0.04% in assay [14].

Regarding `CCc1ccccc1C(=O)Nc1n[nH]c2c(C)c(F)c(C3C(C#N)=C(C)N(C)C(C)=C3C#N)cc12` [BAY-3827], the 50% inhibitory concentration (IC50) in [1] was 0.0014 µM (active). Besides, the residual activity is 100% in [2]; 100% in [3]; 87% in assay [4]; 100% in assay [5]; 91% in assay [6]; 80% in assay [7]. The residual activity in [8] is 68%; in assay [9], 100%; in assay [10], 100%; in assay [11], 100%; in [12], 100%. The inhibition is 2.79% in assay [13] and 19.9% in assay [14].
